Assay results published in patent US9388174B2, “Azole benzene derivative” (TEIJIN PHARMA LIMITED, priority 2013, dated 2016).

biological target: T1, oxidase-type xanthine oxidoreductase (from buttermilk) (Bos taurus, UniProt P80457); test: xanthine oxidase inhibitory activity (change of absorbance at 290 nm); format: biochemical; conditions: xanthine substrate, read-out: Inhibitor Activity
T1 construct: purchased Calbiochem Novabiochem Corp; host or cells: buttermilk (natural source)
Experimental: Test compound was dissolved in DMSO (manufactured by Sigma Co.) to prepare a 20 mM solution. The solution was adjusted to an optimal concentration and used for the testing.
This evaluation was carried out by measuring oxidase-type xanthine oxidoreductase activity. Concretely, a xanthine (manufactured by Sigma Co.) solution was prepared at 10 mM using a 20 mM sodium hydroxide solution and then mixed with 100 mM phosphate buffer to adjusted to 30 μM. 75 μL of the solution was added to each well of the 96-well plate. The test compound diluted with DMSO at 100 times of a final concentration was added to each well at 1.5 μL per well. […] Immediately after mixing, the change of absorbance at 290 nm was measured for 5 minutes. The enzyme activity of DMSO solution without test compound was used as 100% control, and the inhibitory rate of the test compounds was calculated. Fifty percent inhibitory concentration of the test compounds on the oxidase-type xanthine oxidoreductase activity was calculated by fitting to the dose-response curve.

T1 sequence (P80457 whole entry): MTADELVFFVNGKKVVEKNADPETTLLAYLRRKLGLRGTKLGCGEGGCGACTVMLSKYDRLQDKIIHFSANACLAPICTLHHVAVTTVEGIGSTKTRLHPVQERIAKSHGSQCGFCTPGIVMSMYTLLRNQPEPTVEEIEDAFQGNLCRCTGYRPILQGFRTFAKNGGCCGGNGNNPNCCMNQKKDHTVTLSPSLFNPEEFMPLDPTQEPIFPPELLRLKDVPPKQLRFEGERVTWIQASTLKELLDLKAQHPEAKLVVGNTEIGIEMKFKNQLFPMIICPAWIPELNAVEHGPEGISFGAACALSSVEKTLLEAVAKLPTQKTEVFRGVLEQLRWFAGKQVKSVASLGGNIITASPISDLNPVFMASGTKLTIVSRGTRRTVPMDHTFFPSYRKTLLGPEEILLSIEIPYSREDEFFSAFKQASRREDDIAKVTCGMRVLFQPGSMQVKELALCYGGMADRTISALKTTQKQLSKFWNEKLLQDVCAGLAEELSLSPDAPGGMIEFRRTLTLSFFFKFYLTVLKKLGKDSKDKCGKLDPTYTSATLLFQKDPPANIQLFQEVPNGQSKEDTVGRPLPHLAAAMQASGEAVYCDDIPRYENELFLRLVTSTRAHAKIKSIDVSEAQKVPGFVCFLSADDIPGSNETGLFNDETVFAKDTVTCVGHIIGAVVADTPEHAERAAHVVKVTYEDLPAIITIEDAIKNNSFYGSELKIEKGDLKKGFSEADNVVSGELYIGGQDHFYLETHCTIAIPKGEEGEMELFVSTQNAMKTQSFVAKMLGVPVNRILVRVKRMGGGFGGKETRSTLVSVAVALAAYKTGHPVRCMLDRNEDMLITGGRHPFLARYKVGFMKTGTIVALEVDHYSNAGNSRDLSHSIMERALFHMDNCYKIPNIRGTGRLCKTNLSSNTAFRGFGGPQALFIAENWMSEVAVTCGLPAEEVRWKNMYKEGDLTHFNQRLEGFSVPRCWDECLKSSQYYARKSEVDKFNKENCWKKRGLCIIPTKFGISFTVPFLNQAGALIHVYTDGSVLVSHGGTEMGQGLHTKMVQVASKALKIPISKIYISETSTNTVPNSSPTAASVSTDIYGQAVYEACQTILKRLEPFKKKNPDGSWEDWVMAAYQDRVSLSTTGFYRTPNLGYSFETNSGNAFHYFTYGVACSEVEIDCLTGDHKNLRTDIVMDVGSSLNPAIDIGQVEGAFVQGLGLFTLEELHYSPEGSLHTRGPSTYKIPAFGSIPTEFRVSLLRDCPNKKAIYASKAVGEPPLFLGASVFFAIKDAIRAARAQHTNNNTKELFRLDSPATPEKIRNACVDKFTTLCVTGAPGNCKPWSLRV

SMILES	IC50 [nM]
Cc1nc(-c2ccc(Oc3cccc(F)c3)c(-n3cnnn3)c2)sc1C(=O)O [compound 37, 2-[4-(3-fluorophenoxy)-3-(1H-1,2,3,4-tetrazol-1-yl)phenyl]-4-methyl-1,3-thiazole-5-carboxylic acid]	1 to 5
Cc1cccc(Oc2ccc(-c3nc(C)c(C(=O)O)s3)cc2-n2cnnn2)c1 [compound 38, 2-[4-(3-methylphenoxy)-3-(1H-1,2,3,4-tetrazol-1-yl)phenyl]-4-methyl-1,3-thiazole-5-carboxylic acid]	1 to 5
Cc1nc(-c2ccc(Oc3ccccc3Cl)c(-n3cnnn3)c2)sc1C(=O)O [compound 39, 2-[4-(2-chlorophenoxy)-3-(1H-1,2,3,4-tetrazol-1-yl)phenyl]-4-methyl-1,3-thiazole-5-carboxylic acid]	1 to 5
Cc1cc(Oc2ccc(-c3nc(C)c(C(=O)O)s3)cc2-n2cnnn2)ccc1F [compound 40, 2-[4-(4-fluoro-3-methylphenoxy)-3-(1H-1,2,3,4-tetrazol-1-yl)phenyl]-4-methyl-1,3-thiazole-5-carboxylic acid]	1 to 5
Cc1cc(F)ccc1Oc1ccc(-c2nc(C)c(C(=O)O)s2)cc1-n1cnnn1 [compound 41, 2-[4-(4-fluoro-2-methylphenoxy)-3-(1H-1,2,3,4-tetrazol-1-yl)phenyl]-4-methyl-1,3-thiazole-5-carboxylic acid]	1 to 5
Cc1nc(-c2ccc(Oc3ccc(F)cc3F)c(-n3cnnn3)c2)sc1C(=O)O [compound 42, 2-[4-(2,4-difluorophenoxy)-3-(1H-1,2,3,4-tetrazol-1-yl)phenyl]-4-methyl-1,3-thiazole-5-carboxylic acid]	1 to 5
COc1cccc(F)c1Oc1ccc(-c2nc(C)c(C(=O)O)s2)cc1-n1cnnn1 [compound 43, 2-[4-(2-fluoro-6-methoxyphenoxy)-3-(1H-1,2,3,4-tetrazol-1-yl)phenyl]-4-methyl-1,3-thiazole-5-carboxylic acid]	1 to 5
Cc1ccccc1Oc1ccc(-c2nc(C)c(C(=O)O)s2)cc1-n1cnnn1 [compound 44, 2-[4-(2-methylphenoxy)-3-(1H-1,2,3,4-tetrazol-1-yl)phenyl]-4-methyl-1,3-thiazole-5-carboxylic acid]	1 to 5
Cc1ccc(Oc2ccc(-c3nc(C)c(C(=O)O)s3)cc2-n2cnnn2)cc1 [compound 45, 2-[4-(4-methylphenoxy)-3-(1H-1,2,3,4-tetrazol-1-yl)phenyl]-4-methyl-1,3-thiazole-5-carboxylic acid]	1 to 5
Cc1cc(F)cc(Oc2ccc(-c3nc(C)c(C(=O)O)s3)cc2-n2cnnn2)c1 [compound 46, 2-[4-(3-fluoro-5-methylphenoxy)-3-(1H-1,2,3,4-tetrazol-1-yl)phenyl]-4-methyl-1,3-thiazole-5-carboxylic acid]	1 to 5
Cc1nc(-c2ccc(Oc3cc(F)ccc3F)c(-n3cnnn3)c2)sc1C(=O)O [compound 47, 2-[4-(2,5-difluorophenoxy)-3-(1H-1,2,3,4-tetrazol-1-yl)phenyl]-4-methyl-1,3-thiazole-5-carboxylic acid]	1 to 5
Cc1ccc(F)c(Oc2ccc(-c3nc(C)c(C(=O)O)s3)cc2-n2cnnn2)c1 [compound 48, 2-[4-(2-fluoro-5-methylphenoxy)-3-(1H-1,2,3,4-tetrazol-1-yl)phenyl]-4-methyl-1,3-thiazole-5-carboxylic acid]	1 to 5
Cc1nc(-c2ccc(SC(C)C)c(-n3cnnn3)c2)sc1C(=O)O [compound 50, 4-methyl-2-[4-(propan-2-ylsulfanyl)-3-(1H-1,2,3,4-tetrazol-1-yl)phenyl]-1,3-thiazole-5-carboxylic acid]	1 to 5
Cc1ccc(Sc2ccc(-c3nc(C)c(C(=O)O)s3)cc2-n2cnnn2)cc1 [compound 51, 4-methyl-2-{4-[(4-methylphenyl)sulfanyl]-3-(1H-1,2,3,4-tetrazol-1-yl)phenyl}-1,3-thiazole 5-carboxylic acid]	1 to 5

tested on: level of uric acid in the plasma; test: Hypouricemic effect (oxonic acid-induced hyperuricemic beagle dogs); format: in vivo; conditions: hyperuricemic beagle dog, oral, 10 mg/kg, 8 hours after administration
Experimental: Potassium oxonate (50 mg/kg) was subcutaneously administrated before and 4 hours after compound administration. After the blood was collected from the cephalic vein at 8 hours after administration, the plasma was separated. The level of uric acid in the plasma sample was measured by LC-MS/MS method and the percentage of hypouricemic effect was determined by the following expression: Percentage of hypouricemic effect (%)=(Level of uric acid of the control animal−Level of uric acid of the test compound-administered animal)×100/Level of uric acid of the control animal.

SMILES	hypouricemic effect
Cc1nc(-c2ccc(OCC(C)C)c(-n3cnnn3)c2)sc1C(=O)O [Compound No. 25, 4-methyl-2-[4-(2-methylpropoxy)-3-(1H-1,2,3,4-tetrazol-1-yl)phenyl]-1,3-thiazole-5-carboxylic acid]	showed a hypouricemic effect
